We go through 26 compounds from US10202377B2, “3-(1H-benzo[D]imidazol-2-yl)-1H-pyrazolo[3,4-C]pyridine and therapeutic uses thereof” (Samumed, LLC, priority 2014, dated 2019).

Assay [1] relates to Wnt activity (Sp5-Luc reporter, SW480 colon carcinoma cells). Description: Sp5-Luc Wnt reporter gene screening assay in SW480 colon carcinoma cells. As to conditions: Homo sapiens.
The test system of assay [2] is primary human fibroblasts derived from IPF patients (LL29 cells). Briefly: Inhibition of fibrosis (αSMA staining) in TGF-β1-treated primary human fibroblasts from IPF patients. Particulars: Fibroblast, 96 h, TGF-β1 20 ng/mL, 4 days. It counts as cell-based. Here is the method: The above synthesized compounds were screened using primary human fibroblasts (derived from IPF patients) treated with TGF-β1 to determine their ability to inhibit the fibrotic process.
Compound Screening: Each compound was dissolved in DMSO as a 10 mM stock and used to prepare compound source plates. […] LL29 cells were plated at 1,500 cells/well in 80 μl/well F12 medium supplemented with 1% Fetal Bovine Serum. One hour after addition of the cells, TGF-β1 (Peprotech; 20 ng/mL) was added to the plates to induce fibrosis (ref. 1 and 2 above). Wells treated with TGF-β1 and containing DMSO were used as controls. Cells were incubated at 37° C. and 5% CO2 for 4 days. Following incubation for 4 days, SYTOX green nucleic acid stain (Life Technologies [Thermo Fisher Scientific]) was added to the wells at a final concentration of 1 uM and incubated at room temperature for 30 min. Cells were then fixed using 4% formaldehyde (Electron Microscopy Sciences), washed 3 times with PBS followed by blocking and permeabilization using 3% Bovine Serum Albumin (BSA; Sigma) and 0.3% Triton X-100 (Sigma) in PBS. Cells were then stained with antibody specific to α-smooth muscle actin (aSMA; Abcam) (ref. 1 and 2 above) in 3% Bovine Serum Albumin (BSA; Sigma) and 0.3% Triton X-100 (Sigma) in PBS, and incubated overnight at 4° C. […] Dead or apoptotic cells were excluded from analysis based on positive SYTOX green staining. % of total cells positive for αSMA were counted in each well and normalized to the average of 11 wells treated with TGF-β1 on the same plate using Dotmatics' Studies Software. […] The EC50 values are reported.

SMILES strings stand for the structures.

What is called IC50 is the concentration that inhibits the measured activity by half. Low readings indicate greater potency, high ones weaker potency. The term EC50 denotes the concentration giving half of the maximal effect. Turning to `CC(=O)c1ccc(-c2cccc3[nH]c(-c4n[nH]c5cnc(-c6cccnc6)cc45)nc23)s1` [Compound 394, 1-(5-(2-(5-(Pyridin-3-yl)-1H-pyrazolo[3,4-c]pyridin-3-yl)-1H-benzo[d]imidazol-4-yl)thiophen-2-yl)ethan-1-one], half-maximal inhibition in assay [1] (IC50) required 44.3 nM. The compound further registered a concentration giving a half-maximal response (EC50) in assay [2] of 110 nM.

Compound `CCCC(=O)Nc1cncc(-c2cc3c(-c4nc5c(-c6cccs6)cccc5[nH]4)n[nH]c3cn2)c1` [Compound 329, N-(5-(3-(4-(Thiophen-2-yl)-1H-benzo[d]imidazol-2-yl)-1H-pyrazolo[3,4-c]pyridin-5-yl)pyridin-3-yl)butyramide] yielded an IC50 in assay [1] of 56 nM. In assay [2], this compound yielded an EC50 of 67 nM. In the case of `CC(C)CC(=O)Nc1cncc(-c2cc3c(-c4nc5c(-c6cc(F)cc(OCCN(C)C)c6)cccc5[nH]4)n[nH]c3cn2)c1` [Compound 1262, N-(5-(3-(4-(3-(2-(Dimethylamino)ethoxy)-5-fluorophenyl)-1H-benzo[d]imidazol-2-yl)-1H-pyrazolo[3,4-c]pyridin-5-yl)pyridin-3-yl)-3-methylbutanamide], the IC50 in assay [1] was found to be 747 nM. In the case of `CC(C)CC(=O)Nc1cncc(-c2cc3c(-c4nc5c(-c6ccc(F)s6)cccc5[nH]4)n[nH]c3cn2)c1` [Compound 340, N-(5-(3-(4-(5-Fluorothiophen-2-yl)-1H-benzo[d]imidazol-2-yl)-1H-pyrazolo[3,4-c]pyridin-5-yl)pyridin-3-yl)-3-methylbutanamide], in assay [1], the midpoint of inhibition, the IC50, lay at 17.3 nM. Same read-out and setting: in the case of `Fc1cccc(-c2cccc3[nH]c(-c4n[nH]c5cnc(-c6cncc(OC7CCNCC7)c6)cc45)nc23)c1` [Compound 944, 3-(4-(3-Fluorophenyl)-1H-benzo[d]imidazol-2-yl)-5-(5-(piperidin-4-yloxy)pyridin-3-yl)-1H-pyrazolo[3,4-c]pyridine] it was 1200 nM; in that of `O=C(Nc1cncc(-c2cc3c(-c4nc5c(-c6ccsc6)cccc5[nH]4)n[nH]c3cn2)c1)C1CCC1` [Compound 280, N-(5-(3-(4-(Thiophen-3-yl)-1H-benzo[d]imidazol-2-yl)-1H-pyrazolo[3,4-c]pyridin-5-yl)pyridin-3-yl)cyclobutanecarboxamide], 6.2 nM; in that of `Fc1cccc(-c2cccc3[nH]c(-c4n[nH]c5cnc(C6=CCNCC6)cc45)nc23)c1` [Compound 938, 3-(4-(3-Fluorophenyl)-1H-benzo[d]imidazol-2-yl)-5-(1,2,3,6-tetrahydropyridin-4-yl)-1H-pyrazolo[3,4-c]pyridine], 145 nM. For `O=C(CC1CCNCC1)Nc1cncc(-c2cc3c(-c4nc5c(-c6cccc(F)c6)cccc5[nH]4)n[nH]c3cn2)c1` [Compound 945, N-(5-(3-(4-(3-Fluorophenyl)-1H-benzo[d]imidazol-2-yl)-1H-pyrazolo[3,4-c]pyridin-5-yl)pyridin-3-yl)-2-(piperidin-4-yl)acetamide], the IC50 in assay [1] is > 10000 nM. The same measure, in the same setting: the value for `CC(=O)c1ccc(-c2cccc3[nH]c(-c4n[nH]c5cnc(-c6cncc(NC(=O)CC(C)(C)C)c6)cc45)nc23)s1` [Compound 406, N-(5-(3-(4-(5-Acetylthiophen-2-yl)-1H-benzo[d]imidazol-2-yl)-1H-pyrazolo[3,4-c]pyridin-5-yl)pyridin-3-yl)-3,3-dimethylbutanamide] was 247 nM; that for `CS(=O)(=O)NCc1cc(F)cc(-c2cccc3[nH]c(-c4n[nH]c5cnc(-c6cncc(NC(=O)C7CCC7)c6)cc45)nc23)c1` [Compound 436, N-(5-(3-(4-(3-Fluoro-5-(methylsulfonamidomethyl)phenyl)-1H-benzo[d]imidazol-2-yl)-1H-pyrazolo[3,4-c]pyridin-5-yl)pyridin-3-yl) cyclobutanecarboxamide] was 25.8 nM; that for `Fc1cccc(-c2cccc3[nH]c(-c4n[nH]c5cnc(-c6cncc(OCCN7CCCC7)c6)cc45)nc23)c1` [Compound 946, 3-(4-(3-Fluorophenyl)-1H-benzo[d]imidazol-2-yl)-5-(5-(2-(pyrrolidin-1-yl)ethoxy)pyridin-3-yl)-1H-pyrazolo[3,4-c]pyridine] was 580 nM. Compound `CN1CCN(c2cccc3[nH]c(-c4n[nH]c5cnc(-c6cncc(CN7CCCCC7)c6)cc45)nc23)CC1` [Compound 223, 3-(4-(4-Methylpiperazin-1-yl)-1H-benzo[d]imidazol-2-yl)-5-(5-(piperidin-1-ylmethyl)pyridin-3-yl)-1H-pyrazolo[3,4-c]pyridine] showed an EC50 in assay [2] of 2610 nM. For `O=C(Nc1cncc(-c2cc3c(-c4nc5ccccc5[nH]4)n[nH]c3cn2)c1)C1CCCCC1` [Compound 256, N-(5-(3-(1H-Benzo[d]imidazol-2-yl)-1H-pyrazolo[3,4-c]pyridin-5-yl)pyridin-3-yl)cyclohexanecarboxamide], inhibition in assay [1] was half-maximal at 95.6 nM (IC50). On the same count and under the same terms, the value for `NC1CN(c2cncc(-c3cc4c(-c5nc6c(-c7cccc(F)c7)cccc6[nH]5)n[nH]c4cn3)n2)C1` [Compound 942, 1-(6-(3-(4-(3-Fluorophenyl)-1H-benzo[d]imidazol-2-yl)-1H-pyrazolo[3,4-c]pyridin-5-yl)pyrazin-2-yl)azetidin-3-amine] was 79 nM; that for `Cc1ncc(-c2cc3c(-c4nc5c(-c6cccc(F)c6)cccc5[nH]4)n[nH]c3cn2)n1C` [Compound 941, 5-(1,2-Dimethyl-1H-imidazol-5-yl)-3-(4-(3-fluorophenyl)-1H-benzo[d]imidazol-2-yl)-1H-pyrazolo[3,4-c]pyridine] was 334 nM.

The compound `Fc1cccc(-c2cccc3[nH]c(-c4n[nH]c5cnc(-c6cncc(OC7CCCCC7)c6)cc45)nc23)c1` [Compound 943, 5-(5-(Cyclohexyloxy)pyridin-3-yl)-3-(4-(3-fluorophenyl)-1H-benzo[d]imidazol-2-yl)-1H-pyrazolo[3,4-c]pyridine] had an IC50 in assay [1] of 560 nM.

For the compound `Fc1cccc(-c2cccc3[nH]c(-c4n[nH]c5cnc(-c6cncc(OCc7ccccc7)c6)cc45)nc23)c1` [Compound 950, 5-(5-(Benzyloxy)pyridin-3-yl)-3-(4-(3-fluorophenyl)-1H-benzo[d]imidazol-2-yl)-1H-pyrazolo[3,4-c]pyridine], the IC50 in assay [1] was 165 nM.

Regarding `CC(C)C(=O)Nc1cncc(-c2cc3c(-c4nc5c(N6CCN(C)CC6)cccc5[nH]4)n[nH]c3cn2)c1` [Compound 217, N-(5-(3-(4-(4-Methylpiperazin-1-yl)-1H-benzo[d]imidazol-2-yl)-1H-pyrazolo[3,4-c]pyridin-5-yl)pyridin-3-yl)isobutyramide], 355 nM corresponded to half-maximal inhibition in assay [1] (IC50). Same read-out and setting: the value for `CCCC(=O)Nc1cncc(-c2cc3c(-c4nc5c(-c6ccncc6)cccc5[nH]4)n[nH]c3cn2)c1` [Compound 121, N-(5-(3-(4-(Pyridin-4-yl)-1H-benzo[d]imidazol-2-yl)-1H-pyrazolo[3,4-c]pyridin-5-yl)pyridin-3-yl)butyramide] was > 10000 nM; that for `CCCCC(=O)Nc1cncc(-c2cc3c(-c4nc5c(-c6ccoc6)cccc5[nH]4)n[nH]c3cn2)c1` [Compound 304, N-(5-(3-(4-(Furan-3-yl)-1H-benzo[d]imidazol-2-yl)-1H-pyrazolo[3,4-c]pyridin-5-yl)pyridin-3-yl)pentanamide] was 145 nM.

In assay [1], `CN(C)c1cncc(-c2cc3c(-c4nc5c(-c6cccs6)cccc5[nH]4)n[nH]c3cn2)c1` [Compound 319, N,N-Dimethyl-5-(3-(4-(thiophen-2-yl)-1H-benzo[d]imidazol-2-yl)-1H-pyrazolo[3,4-c]pyridin-5-yl)pyridin-3-amine] displayed an IC50 of 77.9 nM.

As for `Cn1cc(-c2cc3c(-c4nc5c(-c6cccc(F)c6)cccc5[nH]4)n[nH]c3cn2)cn1` [Compound 940, 3-(4-(3-Fluorophenyl)-1H-benzo[d]imidazol-2-yl)-5-(1-methyl-1H-pyrazol-4-yl)-1H-pyrazolo[3,4-c]pyridine], half-maximal inhibition in assay [1] (IC50) was put at 46 nM.

The compound `O=C(Nc1cncc(-c2cc3c(-c4nc5c(-c6ccoc6)cccc5[nH]4)n[nH]c3cn2)c1)C1CCC1` [Compound 306, N-(5-(3-(4-(Furan-3-yl)-1H-benzo[d]imidazol-2-yl)-1H-pyrazolo[3,4-c]pyridin-5-yl)pyridin-3-yl)cyclobutanecarboxamide] came in with an IC50 in assay [1] of 16.8 nM. `O=C(CC1CCCCC1)Nc1cncc(-c2cc3c(-c4nc5c(-c6cccc(F)c6)cccc5[nH]4)n[nH]c3cn2)c1` [Compound 951, 2-Cyclohexyl-N-(5-(3-(4-(3-fluorophenyl)-1H-benzo[d]imidazol-2-yl)-1H-pyrazolo[3,4-c]pyridin-5-yl)pyridin-3-yl)acetamide] had an IC50 in assay [1] of 115 nM. The same measure, in the same setting: the value for `CN(C)CC(=O)Nc1cncc(-c2cc3c(-c4nc5c(-c6cccc(F)c6)cccc5[nH]4)n[nH]c3cn2)c1` [Compound 1437, 2-(Dimethylamino)-N-(5-(3-(4-(3-fluorophenyl)-1H-benzo[d]imidazol-2-yl)-1H-pyrazolo[3,4-c]pyridin-5-yl)pyridin-3-yl)acetamide] was 155 nM. On the same count and under the same terms, the value for `CC(C)CC(=O)Nc1cncc(-c2cc3c(-c4nc5c(-c6cc(F)cc(OCCN7CCCC7)c6)cccc5[nH]4)n[nH]c3cn2)c1` [Compound 1306, N-(5-(3-(4-(3-Fluoro-5-(2-(pyrrolidin-1-yl)ethoxy)phenyl)-1H-benzo[d]imidazol-2-yl)-1H-pyrazolo[3,4-c]pyridin-5-yl)pyridin-3-yl)-3-methylbutanamide] was 1370 nM.
